Results on 17 compounds are retold here after patent US9409952B2, “Peptide-compound cyclization method” (Chugai Seiyaku Kabushiki Kaisha, priority 2011, dated 2016).

Starred links: 1 amine or outer side, 2 acyl side, 3 side chain; linkers in the order of their positions; H or OH if unused. Positions of bridges follow the written chain, without caps; N, C: chain ends. Non-standard residues stand in square brackets, D forms with d. Residues, ends and D or L forms follow the SMILES beside them. *: point of attachment. X2 = O=C(C[C@H](N[*:1])C(F)(F)F)[*:2]; Lys(Me2) = CN(C)CCCC[C@H](N)C(=O)O; NMeF = CN[C@@H](Cc1ccccc1)C(=O)O; NMeGABA = CN(CCCC(=O)[*:2])[*:1]; NMeI = CC[C@H](C)[C@H](NC)C(=O)O; NMeβAla = CN(CCC(=O)[*:2])[*:1]; NMeL = CN[C@@H](CC(C)C)C(=O)O; NMeV = CN[C@H](C(=O)O)C(C)C; NMeS = CN[C@@H](CO)C(=O)O; NMeA = CN[C@@H](C)C(=O)O; Piperidide = C1CCN(*)CC1; dNMeA = CN[C@H](C)C(=O)O; Abu = CC[C@H](N)C(=O)O; Sar = CNCC(=O)O; tBu = CC(C)(C)*

The nature of the first data set: PAMPA (parallel artificial membrane permeability assay). The format is in vitro ADME. Conditions: PAMPA, pH 6.5. In a few lines: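 Artificial membrane was 10% (w/v) egg lecithin plus 0.5% (w/v) cholesterol in dodecane on a PVDF filter. A 10 mM DMSO stock was added at 0.5% (v/v) to donor buffer (50 mM MOPSO, pH 6.5, 5.0% glycocholic acid). After 18 h at 37 °C, LC/MS or LC/UV gave donor and acceptor levels for Pe.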
For `CC(C)C[C@H]1C(=O)N(C)[C@@H](C(C)C)C(=O)N[C@@H](Cc2ccccc2)C(=O)N[C@H](C(=O)N(C)[C@@H](Cc2ccccc2)C(=O)N(C)[C@@H](Cc2ccccc2)C(=O)N[C@@H](C)C(=O)N2CCCCC2)CC(=O)N[C@@H](C)C(=O)N[C@@H](C(C)C)C(=O)N(C)[C@@H](CC(C)C)C(=O)N[C@@H]([C@@H](C)O)C(=O)N(C)[C@@H](Cc2ccccc2)C(=O)NCC(=O)N1C` [DP-287] (AV[NMeL]T[NMeF]G[NMeL][NMeV]FD[NMeF][NMeF]A-Piperidide; lactam N-10), the Papp at 18 hours, 50 µM worked out at 1.4 ×10⁻⁶ cm/s.
Same read-out and setting: the value for `CC[C@H](C)[C@@H]1NC(=O)[C@@H](C)N(C)C(=O)C[C@@H](C(=O)N(C)[C@@H](Cc2ccccc2)C(=O)N[C@@H](C)C(=O)N2CCCCC2)NC(=O)[C@H](Cc2ccccc2)NC(=O)[C@H]([C@@H](C)O)NC(=O)[C@@H]2CCCN2C(=O)CNC(=O)[C@H](CC(C)C)N(C)C(=O)[C@H](Cc2ccccc2)N(C)C(=O)[C@H](CC(C)C)N(C)C(=O)[C@H](CC(C)C)NC1=O` [DP-283] ([dNMeA]IL[NMeL][NMeF][NMeL]GPTFD[NMeF]A-Piperidide; lactam N-11) was 1.5 ×10⁻⁶ cm/s.
As for `CC(C)C[C@@H]1NC(=O)[C@H](Cc2ccccc2)N(C)C(=O)[C@@H](C(C)C)NC(=O)C[C@@H](C(=O)N2CCCCC2)NC(=O)[C@H](C(C)C)N(C)C(=O)[C@H](Cc2ccccc2)N(C)C(=O)[C@H](COC(C)(C)C)NC(=O)[C@H](CC(C)C)N(C)C(=O)CN(C)C(=O)[C@H]([C@@H](C)O)NC(=O)[C@H](CC(C)C)N(C)C1=O` [DP-149] ([dV][NMeF]L[NMeL]T[Sar][NMeL]S(tBu)[NMeF][NMeV]D-Piperidide; lactam N-11), the Papp at 18 hours, 50 µM was 17 ×10⁻⁶ cm/s.
Same read-out and setting: the value for `CC[C@H](C)[C@H]1C(=O)N[C@H](C(=O)N2CCCCC2)CC(=O)N[C@@H](C)C(=O)N(C)[C@@H](C)C(=O)N(C)[C@@H](Cc2ccccc2)C(=O)N(C)[C@@H](CC(C)C)C(=O)N[C@@H]([C@@H](C)O)C(=O)N(C)CC(=O)N(C)[C@@H](CC(C)C)C(=O)N[C@@H](COC(C)(C)C)C(=O)N1C` [DP-36] (A[NMeA][NMeF][NMeL]T[Sar][NMeL]S(tBu)[NMeI]D-Piperidide; lactam N-10) was 27 ×10⁻⁶ cm/s.
Same read-out and setting: for `CC(C)C[C@@H]1NC(=O)[C@H](CCC(=O)O)NC(=O)[C@H](Cc2ccccc2)N(C)C(=O)[C@H](CC(C)C)NC(=O)[C@H](CC(C)C)N(C)C(=O)[C@H](Cc2ccccc2)NC(=O)[C@H](CC(C)C)N(C)C(=O)[C@H](CC(C)C)N(C)C(=O)[C@H](Cc2ccccc2)NC(=O)CN(C)C(=O)C[C@@H](C(=O)N(C)[C@@H](Cc2ccccc2)C(=O)N[C@@H](C)C(=O)N2CCCCC2)NC1=O` [DP-596] ([Sar]F[NMeL][NMeL]F[NMeL]L[NMeF]ELD[NMeF]A-Piperidide; lactam N-11) the value was 3.2 ×10⁻⁶ cm/s; for `CC[C@H](C)[C@H]1C(=O)N[C@@H]([C@@H](C)O)C(=O)N[C@@H](Cc2ccccc2)C(=O)N2CCC[C@H]2C(=O)NCC(=O)N(C)[C@@H](CC(C)C)C(=O)N[C@H](C(=O)N(C)[C@@H](Cc2ccccc2)C(=O)N[C@@H](C)C(=O)N2CCCCC2)CC(=O)N[C@H](C(C)C)C(=O)N[C@@H](Cc2ccccc2)C(=O)N(C)[C@@H](CC(C)C)C(=O)N[C@@H](CC(C)C)C(=O)N1C` [DP-278] ([dV]F[NMeL]L[NMeI]TFPG[NMeL]D[NMeF]A-Piperidide; lactam N-11), 1.5 ×10⁻⁶ cm/s.

The data set is the same for the next values; noted with them: PAMPA; membrane permeation rate (Pe); 50 mM MOPSO buffer pH 6.5 with 5.0% glycocholic acid, 37° C., 18 hours; read-out: iPAMPA Pe.
On to `CC[C@H](C)[C@@H]1NC(=O)[C@H](CC(C)C)N(C)C(=O)[C@H](CC(C)C)N(C)C(=O)[C@H](C)N(C)C(=O)[C@H]([C@@H](C)O)NC(=O)[C@H](Cc2ccccc2)N(C)C(=O)[C@@H](C)N(C)C(=O)C[C@@H](C(=O)N(C)[C@@H](Cc2ccccc2)C(=O)N(C)[C@@H](Cc2ccccc2)C(=O)N[C@@H](C)C(=O)N2CCCCC2)NC(=O)[C@H](C(C)C)N(C)C1=O` [DP-399] ([dNMeA][NMeF]T[NMeA][NMeL][NMeL]I[NMeV]D[NMeF][NMeF]A-Piperidide; lactam N-9), for which the Papp at 18 hours, 50 µM was determined as 0.89 ×10⁻⁶ cm/s.
Still for that read-out and setting: the value for `CC(C)C[C@@H]1NC(=O)[C@H](CC(C)C)N(C)C(=O)CCN(C)C(=O)C[C@@H](C(=O)N(C)[C@@H](Cc2ccccc2)C(=O)N[C@@H](C)C(=O)N2CCCCC2)NC(=O)[C@H](CC(C)C)N(C)C(=O)[C@H](Cc2ccccc2)NC(=O)[C@H](Cc2ccccc2)N(C)C(=O)[C@H](C)NC(=O)[C@H]([C@@H](C)O)NC(=O)[C@H](CC(C)C)N(C)C1=O` [DP-369] ([NMeβAla][NMeL]L[NMeL]TA[NMeF]F[NMeL]D[NMeF]A-Piperidide; lactam N-10) was 26 ×10⁻⁶ cm/s.
`CC[C@H](C)[C@@H]1NC(=O)[C@H](CC(C)C)N(C)C(=O)[C@H](C(C)C)N(C)C(=O)[C@H](Cc2ccccc2)N(C)C(=O)[C@H](CC(C)C)NC(=O)[C@H](C)N(C)C(=O)[C@H](C)N(C)C(=O)[C@H]([C@@H](C)O)NC(=O)[C@H](Cc2ccccc2)N(C)C(=O)CN(C)C(=O)C[C@@H](C(=O)N(C)[C@@H](Cc2ccccc2)C(=O)N[C@@H](C)C(=O)N2CCCCC2)NC1=O` [DP-186] ([Sar][NMeF]T[NMeA][NMeA]L[NMeF][NMeV][NMeL]ID[NMeF]A-Piperidide; lactam N-11): the Papp at 18 hours, 50 µM turned out to be 37 ×10⁻⁶ cm/s.
Same read-out and setting: for `CC(C)C[C@H]1C(=O)N(C)[C@@H](CC(C)C)C(=O)N(C)[C@@H](Cc2ccccc2)C(=O)N[C@@H]([C@@H](C)O)C(=O)N(C)[C@@H](C)C(=O)N(C)[C@@H](CC(C)C)C(=O)N(C)[C@@H](Cc2ccccc2)C(=O)N[C@H](C(=O)N(C)[C@@H](Cc2ccccc2)C(=O)N[C@@H](C)C(=O)N2CCCCC2)CC(=O)N(C)[C@H](C)C(=O)N(C)[C@@H](CC(C)C)C(=O)N[C@@H](C)C(=O)N1C` [DP-184] ([dNMeA][NMeL]A[NMeL][NMeL][NMeF]T[NMeA][NMeL][NMeF]D[NMeF]A-Piperidide; lactam N-11) the value was 1.3 ×10⁻⁶ cm/s; for `CC[C@H](C)[C@@H]1NC(=O)[C@H](C)N(C)C(=O)[C@H]([C@@H](C)O)NC(=O)[C@H](CC(C)C)N(C)C(=O)[C@H](Cc2ccccc2)N(C)C(=O)[C@H](C)N(C)C(=O)[C@@H](C(C)C)NC(=O)C[C@@H](C(=O)N(C)[C@@H](Cc2ccccc2)C(=O)N(C)[C@@H](Cc2ccccc2)C(=O)N[C@@H](C)C(=O)N2CCCCC2)NC(=O)[C@H](C(C)C)N(C)C(=O)[C@H](CC(C)C)N(C)C1=O` [DP-510] ([dV][NMeA][NMeF][NMeL]T[NMeA]I[NMeL][NMeV]D[NMeF][NMeF]A-Piperidide; lactam N-10), 2.2 ×10⁻⁶ cm/s; for `CC[C@H](C)[C@@H]1NC(=O)[C@H](CC(C)C)N(C)C(=O)[C@H](Cc2ccccc2)N(C)C(=O)[C@H]([C@@H](C)O)NC(=O)[C@H](C)N(C)C(=O)CCCN(C)C(=O)C[C@@H](C(=O)N(C)[C@@H](Cc2ccccc2)C(=O)N[C@@H](C)C(=O)N2CCCCC2)NC(=O)[C@H](CC(C)C)N(C)C(=O)[C@H](Cc2ccccc2)N(C)C(=O)[C@H](CC(C)C)N(C)C1=O` [DP-373] ([NMeGABA][NMeA]T[NMeF][NMeL]I[NMeL][NMeF][NMeL]D[NMeF]A-Piperidide; lactam N-10), 9.2 ×10⁻⁶ cm/s.
On the same count and under the same terms, for `CC[C@@H]1NC(=O)[C@H](CO)N(C)C(=O)[C@H](CC(C)C)N(C)C(=O)[C@H](CC(C)C)N(C)C(=O)[C@H](CC(C)C)N(C)C(=O)[C@@H](C)NC(=O)[C@H](CC(C)C)NC(=O)C[C@@H](C(F)(F)F)NC(=O)[C@H](C(C)C)NC(=O)[C@H](CC(C)C)N(C)C(=O)CN(C)C1=O` [DP-656] (cyclo([Abu][Sar][NMeL]V[X2]L[dA][NMeL][NMeL][NMeL][NMeS])) the value was 30 ×10⁻⁶ cm/s; for `CC(C)C[C@@H]1NC(=O)[C@H](CC(C)C)N(C)C(=O)[C@H](CCCCN(C)C)NC(=O)[C@H](CC(C)C)N(C)C(=O)[C@H](Cc2ccccc2)N(C)C(=O)[C@H](CC(C)C)N(C)C(=O)[C@@H](C(C)C)NC(=O)C[C@@H](C(=O)N(C)[C@@H](Cc2ccccc2)C(=O)N[C@@H](C)C(=O)N2CCCCC2)NC(=O)[C@H](CC(C)C)N(C)C(=O)[C@H](CC(C)C)N(C)C1=O` [DP-588] ([dV][NMeL][NMeF][NMeL][Lys(Me2)][NMeL]L[NMeL][NMeL]D[NMeF]A-Piperidide; lactam N-10), 0.6 ×10⁻⁶ cm/s; for `CC[C@H](C)[C@H](NC(=O)[C@H](CC(C)C)NC(=O)[C@H](Cc1ccccc1)NC(=O)[C@@H]1CCCN1C(=O)[C@H](CC(C)C)NC(=O)[C@@H]1CC(=O)N[C@@H](Cc2ccccc2)C(=O)N(C)[C@@H](Cc2ccccc2)C(=O)N(C)[C@@H](CC(C)C)C(=O)N[C@@H]([C@@H](C)O)C(=O)N(C)[C@@H](C)C(=O)N(C)[C@@H](CC(C)C)C(=O)N1)C(=O)N1CCCCC1` [DP-910] (F[NMeF][NMeL]T[NMeA][NMeL]DLPFLI-Piperidide; lactam N-7), 0.16 ×10⁻⁶ cm/s.
With `CC[C@H](C)[C@@H]1NC(=O)[C@H](CC(C)C)N(C)C(=O)[C@H](C)N(C)C(=O)[C@H](Cc2ccccc2)N(C)C(=O)[C@@H](C)N(C)C(=O)C[C@@H](C(=O)N2CCCCC2)NC(=O)[C@H](CC(C)C)N(C)C(=O)[C@H]([C@@H](C)O)NC(=O)[C@H](CO)NC(=O)[C@H](CC(C)C)NC(=O)[C@H](C)N(C)C(=O)[C@H](CC(C)C)N(C)C(=O)[C@H](Cc2ccccc2)NC(=O)[C@H](CC(C)C)N(C)C1=O` [DP-959] ([dNMeA][NMeF][NMeA][NMeL]I[NMeL]F[NMeL][NMeA]LST[NMeL]D-Piperidide; lactam N-14), the Papp at 18 hours, 50 µM is 2.9 ×10⁻⁶ cm/s.
In the case of `CC[C@H](C)[C@@H]1NC(=O)[C@H](Cc2ccccc2)N(C)C(=O)[C@H](CC(C)C)N(C)C(=O)[C@H](Cc2ccccc2)NC(=O)[C@H]([C@@H](C)O)NC(=O)[C@H](CC(C)C)N(C)C(=O)[C@H](CC(C)C)NC(=O)CCN(C)C(=O)C[C@@H](C(=O)N2CCCCC2)NC(=O)[C@H](CC(C)C)N(C)C1=O` [DP-336] ([NMeβAla]L[NMeL]TF[NMeL][NMeF]I[NMeL]D-Piperidide; lactam N-10), the Papp at 18 hours, 50 µM was 35 ×10⁻⁶ cm/s.
